From PubChem BioAssay (NCI)
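Growth conditions: 96-well plates. Treatment: test compound, 48 hours, 5 concentrations. Analysis: linear interpolation between bracketing concentrations; unreached endpoints set to highest concentration. At the TGI there is no net growth.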

Experiments:
Assay in all cases: DTP human tumour cell line panel, 48 h
786-0 renal = tested on: 786-0 renal
A498 renal = tested on: A498 renal
A549 NSCLC = tested on: A549 NSCLC
ACHN renal = tested on: ACHN renal
BT-549 breast = tested on: BT-549 breast
CAKI-1 renal = tested on: CAKI-1 renal
CCRF-CEM leukemia = tested on: CCRF-CEM leukemia
COLO 205 colon = tested on: COLO 205 colon
DU-145 prostate = tested on: DU-145 prostate
EKVX NSCLC = tested on: EKVX NSCLC
HCC-2998 colon = tested on: HCC-2998 colon
HCT-116 colon = tested on: HCT-116 colon
HCT-15 colon = tested on: HCT-15 colon
HL-60(TB) leukemia = tested on: HL-60(TB) leukemia
HOP-62 NSCLC = tested on: HOP-62 NSCLC
HOP-92 NSCLC = tested on: HOP-92 NSCLC
HT29 colon = tested on: HT29 colon
IGROV1 ovarian = tested on: IGROV1 ovarian
K-562 leukemia = tested on: K-562 leukemia
KM12 colon = tested on: KM12 colon
LOX IMVI melanoma = tested on: LOX IMVI melanoma
M14 melanoma = tested on: M14 melanoma
MALME-3M melanoma = tested on: MALME-3M melanoma
MCF7 breast = tested on: MCF7 breast
MDA-MB-231 breast = tested on: MDA-MB-231 breast
MDA-MB-435 = tested on: MDA-MB-435
MDA-N = tested on: MDA-N
MOLT-4 leukemia = tested on: MOLT-4 leukemia
NCI-H226 lung = tested on: NCI-H226 lung
NCI-H23 lung = tested on: NCI-H23 lung
NCI-H460 lung = tested on: NCI-H460 lung
NCI/ADR-RES ovarian = tested on: NCI/ADR-RES ovarian
OVCAR-3 ovarian = tested on: OVCAR-3 ovarian
OVCAR-4 ovarian = tested on: OVCAR-4 ovarian
OVCAR-5 ovarian = tested on: OVCAR-5 ovarian
OVCAR-8 ovarian = tested on: OVCAR-8 ovarian
PC-3 prostate = tested on: PC-3 prostate
RPMI-8226 leukemia = tested on: RPMI-8226 leukemia
RXF 393 renal = tested on: RXF 393 renal
SF-295 CNS = tested on: SF-295 CNS
SF-539 CNS = tested on: SF-539 CNS
SK-MEL-2 melanoma = tested on: SK-MEL-2 melanoma
SK-MEL-28 melanoma = tested on: SK-MEL-28 melanoma
SK-MEL-5 melanoma = tested on: SK-MEL-5 melanoma
SK-OV-3 ovarian = tested on: SK-OV-3 ovarian
SN12C renal = tested on: SN12C renal
SNB-19 CNS = tested on: SNB-19 CNS
SNB-75 CNS = tested on: SNB-75 CNS
SR leukemia = tested on: SR leukemia
SW-620 colon = tested on: SW-620 colon
T-47D breast = tested on: T-47D breast
TK-10 renal = tested on: TK-10 renal
U251 CNS = tested on: U251 CNS
UACC-257 melanoma = tested on: UACC-257 melanoma
UACC-62 melanoma = tested on: UACC-62 melanoma
UO-31 renal = tested on: UO-31 renal

Structure (SMILES): Cn1c(-c2ccc(C=O)o2)ccc1-c1ccc(C=O)o1
- TGI (786-0 renal): > 100 µM
- TGI (A498 renal): > 100 µM
- TGI (A549 NSCLC): > 100 µM
- TGI (ACHN renal): > 100 µM
- TGI (BT-549 breast): > 100 µM
- TGI (CAKI-1 renal): 36.8 µM
- TGI (CCRF-CEM leukemia): > 100 µM
- TGI (COLO 205 colon): > 100 µM
- TGI (DU-145 prostate): > 100 µM
- TGI (EKVX NSCLC): > 100 µM
- TGI (HCC-2998 colon): > 100 µM
- TGI (HCT-116 colon): 36.7 µM
- TGI (HCT-15 colon): > 100 µM
- TGI (HL-60(TB) leukemia): 46 µM
- TGI (HOP-62 NSCLC): > 100 µM
- TGI (HOP-92 NSCLC): > 100 µM
- TGI (HT29 colon): > 100 µM
- TGI (IGROV1 ovarian): > 100 µM
- TGI (K-562 leukemia): > 100 µM
- TGI (KM12 colon): > 100 µM
- TGI (LOX IMVI melanoma): > 100 µM
- TGI (M14 melanoma): > 100 µM
- TGI (MALME-3M melanoma): > 100 µM
- TGI (MCF7 breast): > 100 µM
- TGI (MDA-MB-231 breast): > 100 µM
- TGI (MDA-MB-435): > 100 µM
- TGI (MDA-N): > 100 µM
- TGI (MOLT-4 leukemia): 80.3 µM
- TGI (NCI-H226 lung): > 100 µM
- TGI (NCI-H23 lung): > 100 µM
- TGI (NCI-H460 lung): > 100 µM
- TGI (NCI/ADR-RES ovarian): > 100 µM
- TGI (OVCAR-3 ovarian): 81.2 µM
- TGI (OVCAR-4 ovarian): > 100 µM
- TGI (OVCAR-5 ovarian): > 100 µM
- TGI (OVCAR-8 ovarian): > 100 µM
- TGI (PC-3 prostate): > 100 µM
- TGI (RPMI-8226 leukemia): > 100 µM
- TGI (RXF 393 renal): > 100 µM
- TGI (SF-295 CNS): > 100 µM
- TGI (SF-539 CNS): 63.7 µM
- TGI (SK-MEL-2 melanoma): > 100 µM
- TGI (SK-MEL-28 melanoma): > 100 µM
- TGI (SK-MEL-5 melanoma): > 100 µM
- TGI (SK-OV-3 ovarian): > 100 µM
- TGI (SN12C renal): > 100 µM
- TGI (SNB-19 CNS): > 100 µM
- TGI (SNB-75 CNS): > 100 µM
- TGI (SR leukemia): > 100 µM
- TGI (SW-620 colon): > 100 µM
- TGI (T-47D breast): > 100 µM
- TGI (TK-10 renal): > 100 µM
- TGI (U251 CNS): > 100 µM
- TGI (UACC-257 melanoma): > 100 µM
- TGI (UACC-62 melanoma): > 100 µM
- TGI (UO-31 renal): > 100 µM
